Measured values as given in patent publication US20160297833A1, “THIENOPYRIMIDINES AS MKNK1 AND MKNK2 INHIBITORS” (BAYER PHARMA AKTIENGESELLSCHAFT, priority 2013, published 2016).

Biological target: T1, human full-length MKNK1 (Homo sapiens, UniProt Q9BUB5, T385D)
T1 construct: GST (N); purchased Carna Biosciences 02-145; host or cells: insect cells (baculovirus expression system)
Assay: MKNK1 kinase high ATP assay (TR-FRET)
Type: biochemical
Conditions: Table 1; MKNK1 kinase high ATP assay, 2 mM ATP; read-out: MKNK1 IC50
Procedure, shortened: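 Full-length human MKNK1 (T385D) preincubated 15 min at 22 °C with compound in HEPES pH 7.5/MgCl2/DTT buffer; reaction with 2 mM ATP (final) and 0.06 μM biotinylated peptide (final), 30 min at 22 °C.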

T1 sequence (Q9BUB5 1-424 isoform Q9BUB5-2 T344D): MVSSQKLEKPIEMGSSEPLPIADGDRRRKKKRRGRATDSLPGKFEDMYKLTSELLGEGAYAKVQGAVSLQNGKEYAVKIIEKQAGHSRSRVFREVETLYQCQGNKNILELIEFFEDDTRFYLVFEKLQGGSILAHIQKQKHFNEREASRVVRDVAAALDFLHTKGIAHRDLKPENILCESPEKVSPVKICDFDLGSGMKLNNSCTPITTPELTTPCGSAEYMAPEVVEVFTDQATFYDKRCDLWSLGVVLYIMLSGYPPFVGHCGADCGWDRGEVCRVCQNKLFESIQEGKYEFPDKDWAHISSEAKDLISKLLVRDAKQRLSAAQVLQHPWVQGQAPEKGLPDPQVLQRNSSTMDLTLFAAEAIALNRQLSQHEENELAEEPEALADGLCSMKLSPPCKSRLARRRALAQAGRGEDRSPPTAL

Row | SMILES | IC50 [nM]
1 | C[C@@H]1COCCN1C(=O)[C@H]1CCc2c(sc3ncnc(Nc4cc5cn[nH]c5cc4Br)c23)C1 [Example 232, {(7S)-4-[(6-Bromo-1H-indazol-5-yl)amino]-5,6,7,8-tetrahydro[1]benzothieno[2,3-d]pyrimidin-7-yl}[(3R)-3-methylmorpholin-4-yl]methanone] | 5.8
2 | C[C@@H]1CN(C(=O)[C@H]2CCc3c(sc4ncnc(Nc5cc6cn[nH]c6cc5Br)c34)C2)C[C@@H](C)O1 [Example 233, {(7S)-4-[(6-Bromo-1H-indazol-5-yl)amino]-5,6,7,8-tetrahydro[1]benzothieno[2,3-d]pyrimidin-7-yl}[(2R,6R)-2,6-dimethylmorpholin-4-yl]methanone] | 2.1
3 | C[C@H]1COCCN1C(=O)[C@H]1CCc2c(sc3ncnc(Nc4cc5cn[nH]c5cc4Br)c23)C1 [Example 235, {(7S)-4-[(6-Bromo-1H-indazol-5-yl)amino]-5,6,7,8-tetrahydro[1]benzothieno[2,3-d]pyrimidin-7-yl}[(3S)-3-methylmorpholin-4-yl]methanone] | 3.4
4 | C[C@H]1CN(C(=O)[C@H]2CCc3c(sc4ncnc(Nc5cc6cn[nH]c6cc5Br)c34)C2)C[C@H](C)O1 [Example 236, {(7S)-4-[(6-Bromo-1H-indazol-5-yl)amino]-5,6,7,8-tetrahydro[1]benzothieno[2,3-d]pyrimidin-7-yl}[(2S,6S)-2,6-dimethylmorpholin-4-yl]methanone] | 14.6
5 | COCCN(C)C(=O)[C@H]1CCc2c(sc3ncnc(Nc4cc5cn[nH]c5cc4Br)c23)C1 [Example 238, (7S)-4-[(6-Bromo-1H-indazol-5-yl)amino]-N-(2-methoxyethyl)-N-methyl-5,6,7,8-tetrahydro[1]benzothieno[2,3-d]pyrimidine-7-carboxamide] | 3.8
6 | C[C@H]1CN(C(=O)[C@H]2CCc3c(sc4ncnc(Nc5cc6cn[nH]c6cc5N(C)C)c34)C2)C[C@H](C)O1 [Example 239, [(7S)-4-{[6-(Dimethylamino)-1H-indazol-5-yl]amino}-5,6,7,8-tetrahydro[1]benzothieno[2,3-d]pyrimidin-7-yl][(2S,6S)-2,6-dimethylmorpholin-4-yl]methanone] | 0.3
7 | C[C@@H]1CN(C(=O)[C@H]2CCc3c(sc4ncnc(Nc5cc6cn[nH]c6cc5N(C)C)c34)C2)C[C@@H](C)O1 [Example 240, [(7S)-4-{[6-(Dimethylamino)-1H-indazol-5-yl]amino}-5,6,7,8-tetrahydro[1]benzothieno[2,3-d]pyrimidin-7-yl][(2R,6R)-2,6-dimethylmorpholin-4-yl]methanone] | 0.2
8 | CN(C)C(=O)[C@H]1CCc2c(sc3ncnc(Nc4cc5cn[nH]c5cc4N(C)CCC(C)(C)O)c23)C1 [Example 242, (7S)-4-({6-[(3-Hydroxy-3-methylbutyl)(methyl)amino]-1H-indazol-5-yl}amino)-N,N-dimethyl-5,6,7,8-tetrahydro[1]benzothieno[2,3-d]pyrimidine-7-carboxamide] | 20.3
9 | CN(C)C(=O)[C@H]1CCc2c(sc3ncnc(Nc4cc5cn[nH]c5cc4N(C)CCNC(=O)OC(C)(C)C)c23)C1 [Example 243, tert-butyl {2-[(5-{[(7S)-7-(Dimethylcarbamoyl)-5,6,7,8-tetrahydro[1]benzothieno[2,3-d]pyrimidin-4-yl]amino}-1H-indazol-6-yl)(methyl)amino]ethyl}carbamate] | 1.6
10 | CN(CCC(F)(F)F)C(=O)[C@H]1CCc2c(sc3ncnc(Nc4cc5cn[nH]c5cc4N4CCCC4)c23)C1 [Example 245, (7S)—N-Methyl-4-{[6-(pyrrolidin-1-yl)-1H-indazol-5-yl]amino}-N-(3,3,3-trifluoropropyl)-5,6,7,8-tetrahydro[1]benzothieno[2,3-d]pyrimidine-7-carboxamide] | 0.6
11 | CSc1cc2[nH]ncc2cc1Nc1ncnc2sc3c(c12)CC[C@H](C(=O)N1C[C@H](C)O[C@@H](C)C1)C3 [Example 246, [(2S,6S)-2,6-Dimethylmorpholin-4-yl][(7S)-4-{[6-(methylsulfanyl)-1H-indazol-5-yl]amino}-5,6,7,8-tetrahydro[1]benzothieno[2,3-d]pyrimidin-7-yl]methanone] | 5.3
12 | CSc1cc2[nH]ncc2cc1Nc1ncnc2sc3c(c12)CC[C@H](C(=O)N1CCOC[C@H]1C)C3 [Example 248, [(3R)-3-Methylmorpholin-4-yl][(7S)-4-{[6-(methylsulfanyl)-1H-indazol-5-yl]amino}-5,6,7,8-tetrahydro[1]benzothieno[2,3-d]pyrimidin-7-yl]methanone] | 2.2
13 | CSc1cc2[nH]ncc2cc1Nc1ncnc2sc3c(c12)CC[C@H](C(=O)N1CCC1)C3 [Example 250, Azetidin-1-yl[(7S)-4-{[6-(methylsulfanyl)-1H-indazol-5-yl]amino}-5,6,7,8-tetrahydro[1]benzothieno[2,3-d]pyrimidin-7-yl]methanone] | 2.8
14 | CSc1cc2[nH]ncc2cc1Nc1ncnc2sc3c(c12)CC[C@H](C(=O)N1C[C@@H](C)O[C@@H](C)C1)C3 [Example 252, [(2R,6S)-2,6-Dimethylmorpholin-4-yl][(7S)-4-{[6-(methylsulfanyl)-1H-indazol-5-yl]amino}-5,6,7,8-tetrahydro[1]benzothieno[2,3-d]pyrimidin-7-yl]methanone] | 1.5
15 | COCCN(C)C(=O)[C@H]1CCc2c(sc3ncnc(Nc4cc5cn[nH]c5cc4SC)c23)C1 [Example 253, (7S)—N-(2-Methoxyethyl)-N-methyl-4-{[6-(methylsulfanyl)-1H-indazol-5-yl]amino}-5,6,7,8-tetrahydro[1]benzothieno[2,3-d]pyrimidine-7-carboxamide] | 1.9
16 | CSc1cc2[nH]ncc2cc1Nc1ncnc2sc3c(c12)CC[C@H](C(=O)N1CCOC[C@@H]1C)C3 [Example 254, [(3S)-3-Methylmorpholin-4-yl][(7S)-4-{[6-(methylsulfanyl)-1H-indazol-5-yl]amino}-5,6,7,8-tetrahydro[1]benzothieno[2,3-d]pyrimidin-7-yl]methanone] | 1.3
17 | CSc1cc2[nH]ncc2cc1Nc1ncnc2sc3c(c12)CC[C@H](C(=O)N1CCOCC1)C3 [Example 255, [(7S)-4-{[6-(Methylsulfanyl)-1H-indazol-5-yl]amino}-5,6,7,8-tetrahydro[1]benzothieno[2,3-d]pyrimidin-7-yl](morpholin-4-yl)methanone] | 2

More lines, in order of falling IC50, values ahead:

Row | IC50 [nM] | SMILES
18 | 48.3 | CN(C)C(=O)[C@H]1CCc2c(sc3ncnc(Nc4cc5cn[nH]c5cc4NCCNC(=O)OC(C)(C)C)c23)C1 [Example 244, tert-Butyl {2-[(5-{[(7S)-7-(dimethylcarbamoyl)-5,6,7,8-tetrahydro[1]benzothieno[2,3-d]pyrimidin-4-yl]amino}-1H-indazol-6-yl)amino]ethyl}carbamate]
19 | 43.3 | CN(C)C(=O)[C@H]1CCc2c(sc3ncnc(Nc4cc5cn[nH]c5cc4OCCN(C)C(=O)OC(C)(C)C)c23)C1 [Example 256, tert-Butyl {2-[(5-{[(7S)-7-(dimethylcarbamoyl)-5,6,7,8-tetrahydro[1]benzothieno[2,3-d]pyrimidin-4-yl]amino}-1H-indazol-6-yl)oxy]ethyl}methylcarbamate]
20 | 4 | O=C([C@H]1CCc2c(sc3ncnc(Nc4cc5cn[nH]c5cc4Cl)c23)C1)N1CCOCC1 [Example 231, {(7S)-4-[(6-Chloro-1H-indazol-5-yl)amino]-5,6,7,8-tetrahydro[1]benzothieno[2,3-d]pyrimidin-7-yl}(morpholin-4-yl)methanone]
21 | 3.4 | C[C@@H]1CN(C(=O)[C@H]2CCc3c(sc4ncnc(Nc5cc6cn[nH]c6cc5Br)c34)C2)C[C@H](C)O1 [Example 234, {(7S)-4-[(6-Bromo-1H-indazol-5-yl)amino]-5,6,7,8-tetrahydro[1]benzothieno[2,3-d]pyrimidin-7-yl}[(2R,6S)-2,6-dimethylmorpholin-4-yl]methanone]
22 | 2.8 | O=C([C@H]1CCc2c(sc3ncnc(Nc4cc5cn[nH]c5cc4Br)c23)C1)N1CCOCC1 [Example 237, {(7S)-4-[(6-Bromo-1H-indazol-5-yl)amino]-5,6,7,8-tetrahydro[1]benzothieno[2,3-d]pyrimidin-7-yl}(morpholin-4-yl)methanone]
23 | 2.5 | COCCN(C)C(=O)[C@H]1CCc2c(sc3ncnc(Nc4cc5cn[nH]c5cc4Cl)c23)C1 [Example 230, (7S)-4-[(6-Chloro-1H-indazol-5-yl)amino]-N-(2-methoxyethyl)-N-methyl-5,6,7,8-tetrahydro[1]benzothieno[2,3-d]pyrimidine-7-carboxamide]
24 | 2.3 | CSc1cc2[nH]ncc2cc1Nc1ncnc2sc3c(c12)CC[C@H](C(=O)N(C)CCC(F)(F)F)C3 [Example 249, (7S)—N-Methyl-4-{[6-(methylsulfanyl)-1H-indazol-5-yl]amino}-N-(3,3,3-trifluoropropyl)-5,6,7,8-tetrahydro[1]benzothieno[2,3-d]pyrimidine-7-carboxamide]
25 | 1.5 | CSc1cc2[nH]ncc2cc1Nc1ncnc2sc3c(c12)CC[C@H](C(=O)N(C)C(C)C)C3 [Example 251, (7S)—N-Methyl-4-{[6-(methylsulfanyl)-1H-indazol-5-yl]amino}-N-(propan-2-yl)-5,6,7,8-tetrahydro[1]benzothieno[2,3-d]pyrimidine-7-carboxamide]
26 | 0.6 | CSc1cc2[nH]ncc2cc1Nc1ncnc2sc3c(c12)CC[C@H](C(=O)N1C[C@@H](C)O[C@H](C)C1)C3 [Example 247, [(2R,6R)-2,6-Dimethylmorpholin-4-yl][(7S)-4-{[6-(methylsulfanyl)-1H-indazol-5-yl]amino}-5,6,7,8-tetrahydro[1]benzothieno[2,3-d]pyrimidin-7-yl]methanone]
27 | 0.2 | CN(CCC(F)(F)F)C(=O)[C@H]1CCc2c(sc3ncnc(Nc4cc5cn[nH]c5cc4N(C)C)c23)C1 [Example 241, (7S)-4-{[6-(Dimethylamino)-1H-indazol-5-yl]amino}-N-methyl-N-(3,3,3-trifluoropropyl)-5,6,7,8-tetrahydro[1]benzothieno[2,3-d]pyrimidine-7-carboxamide]
